# According to patent US8598122B2, “Antagonistic peptides for frizzled-1 and frizzled-2” (Universiteit Maastricht, priority 2009, dated 2013):
# Where a SMILES comes first, the peptide text is derived from it. Bridges are numbered along the chain shown (N, C = ends). Where no end group is shown, it is not given here. rhodamine = not defined here
# T1: hFzd-4 (Homo sapiens, UniProt Q9ULV1)
# T1 construct: expressed in transfected cells; host or cells: HEK293 superTOPflash, transient, pcDNA3.1/hygro
# T1 sequence (Q9ULV1 37-537): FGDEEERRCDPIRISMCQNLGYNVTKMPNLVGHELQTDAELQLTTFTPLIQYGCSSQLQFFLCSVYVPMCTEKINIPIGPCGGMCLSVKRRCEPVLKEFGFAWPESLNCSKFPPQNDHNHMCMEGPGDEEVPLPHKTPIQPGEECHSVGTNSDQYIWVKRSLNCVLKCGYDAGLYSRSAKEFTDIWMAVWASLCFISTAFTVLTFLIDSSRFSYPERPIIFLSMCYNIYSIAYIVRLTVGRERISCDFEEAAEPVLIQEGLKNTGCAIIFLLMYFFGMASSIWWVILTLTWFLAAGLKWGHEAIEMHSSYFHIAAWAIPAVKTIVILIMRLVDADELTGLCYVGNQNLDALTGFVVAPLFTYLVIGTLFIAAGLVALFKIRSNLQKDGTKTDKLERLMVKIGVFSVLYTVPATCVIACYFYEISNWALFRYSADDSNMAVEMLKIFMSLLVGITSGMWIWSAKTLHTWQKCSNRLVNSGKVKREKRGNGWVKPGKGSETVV
# Tests used:
# frizzled-1 (rFzd-1) = molecular target: T2, frizzled-1 (rFzd-1) (Rattus norvegicus, UniProt Q08463); test: Activity assay: Wnt3a-induced luciferase (superTOPflash) in HEK cells transfected with frizzled-1; type: cell-based; details: for Blocking of Wnt3a-induced luciferase activity, rFzd-1: peptide 1.10^−8 M
# T2 construct: expressed in transfected cells; host or cells: HEK293 superTOPflash (human embryonic kidney), transient, pcDNA3.1/hygro
# T2 sequence (Q08463 69-641): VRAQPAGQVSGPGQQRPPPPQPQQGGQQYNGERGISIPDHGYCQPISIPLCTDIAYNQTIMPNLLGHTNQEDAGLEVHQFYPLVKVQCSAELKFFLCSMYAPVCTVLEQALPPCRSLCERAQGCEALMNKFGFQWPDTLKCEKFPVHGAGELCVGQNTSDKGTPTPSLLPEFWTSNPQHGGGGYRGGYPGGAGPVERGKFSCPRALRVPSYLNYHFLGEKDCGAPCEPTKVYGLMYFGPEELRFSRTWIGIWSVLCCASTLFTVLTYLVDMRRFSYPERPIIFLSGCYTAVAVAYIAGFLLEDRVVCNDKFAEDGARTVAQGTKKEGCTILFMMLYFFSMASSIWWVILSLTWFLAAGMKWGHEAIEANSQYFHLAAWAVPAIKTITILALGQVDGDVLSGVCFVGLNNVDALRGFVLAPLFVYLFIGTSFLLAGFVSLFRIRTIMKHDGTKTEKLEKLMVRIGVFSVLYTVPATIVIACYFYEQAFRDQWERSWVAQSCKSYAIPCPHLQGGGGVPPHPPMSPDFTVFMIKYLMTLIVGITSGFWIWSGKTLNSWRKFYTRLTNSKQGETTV
# Protocol: (§1) Human embryonic kidney (HEK) cells were used for screening. These cells have a luciferase construct stably transfected into the genome (see FIG. 2A), such that when the frizzled receptor is activated and β-catenin is increased, the luciferase is activated by transcription and light can be measured.
# (§2) The peptides were tested by transfecting the frizzled-1 or the frizzled-2 receptor and addition of UM206(S-S) to the cell culture. For testing antagonistic activity, UM206 was added and the natural ligand Wnt3a was added, which is a natural stimulus for the canonical pathway.
# (§3) Day 2: Transfection 12-well plates • heat Fugene6 and DNA 15 minutes at RT • 2 ml serum-free medium in tube • add 3μl fugene • add 2 μg DNA • incubate 30 minutes at RT • wash with PBS • add 50 μtransfectiemix • add 1 ml antibiotica-free medium
# (§4) Day 3: Add conditioned medium or UM206
# (§5) Day 4: Luciferase activity measurements • remove medium • wash with PBS • add 500 μl ⅕ lysisbuffer • shake for 60 minutes • centrifuge in tube • 20 μl lysaat and 50 μl luciferase in new tube for measurement • vortex • measure
# (§6) To determine the inhibitory constant of UM206-8, HEK293-superTOPflash cells were transfected with either rFzd-1 or -2 and incubated with Wnt3a (10^−9M) in the presence of increasing concentrations of either of the peptides (FIG. 15). For UM206, a biphasic inhibition curve was observed that was best fitted with a two-binding-state model.
# (§7) The cell lines were cultured in 75 cm^2 culture flasks (Corning, Schiphol, the Netherlands) in Dulbeco's modified essential medium with L-glutamine (2 mM), 10% fetal calf serum (Invitrogen, Merelbeke, Belgium), and 1% gentamycin (Sigma-Aldrich, Zwijndrecht, The Netherlands). Before starting the experiment, the cell lines were treated with plasmocin 25 μg/ml (Invivogen, Toulose, France) and tested with a mycoalert mycoplasma detection kit (Lonza, Rockland Me., USA). Cells were transiently transfected with Fugene6 (Roche, Indianapolis Ind., USA) with plasmid DNA, pcDNA3.1/hygro (Invitrogen) with frizzled-1/2/4 or Wnts 3a-5a or with pcDNA3.0 (Invitrogen) containing the β-catenin or frizzled-5 sequence. After transfection, the cells were cultured for 24 hours in conditioned medium, collected from the cultured L-cells, L-cells with Wnt3a or 5a (Invitrogen). At the same moment the antagonist was added.
# hFzd-5 = molecular target: T3, hFzd-5 (Homo sapiens, UniProt Q13467); test: Luciferase activity in HEK293 superTOPflash cells overexpressing hFzd-5; type: cell-based; details: FIG. 3, Panel F
# T3 construct: expressed in transfected cells; host or cells: HEK293 superTOPflash, transient, pcDNA3.0
# T3 sequence (Q13467 27-585): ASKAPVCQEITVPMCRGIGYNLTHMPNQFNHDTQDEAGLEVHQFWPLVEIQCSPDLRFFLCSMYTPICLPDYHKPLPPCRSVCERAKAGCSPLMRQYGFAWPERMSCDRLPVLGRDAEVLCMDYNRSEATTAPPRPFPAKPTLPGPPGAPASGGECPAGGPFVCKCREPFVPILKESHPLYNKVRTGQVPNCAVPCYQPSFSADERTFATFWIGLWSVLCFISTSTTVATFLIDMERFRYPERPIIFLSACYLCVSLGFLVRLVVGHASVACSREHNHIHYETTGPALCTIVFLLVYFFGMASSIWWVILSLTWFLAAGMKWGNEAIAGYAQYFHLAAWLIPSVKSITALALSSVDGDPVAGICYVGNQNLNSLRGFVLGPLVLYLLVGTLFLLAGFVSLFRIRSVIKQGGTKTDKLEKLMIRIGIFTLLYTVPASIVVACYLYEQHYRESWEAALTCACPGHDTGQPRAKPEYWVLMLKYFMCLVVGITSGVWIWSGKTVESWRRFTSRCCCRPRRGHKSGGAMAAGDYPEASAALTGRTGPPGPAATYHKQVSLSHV
# Protocol: (§8) In FIG. 3, Panel E, the efficacy of UM206 to block the Wnt3a-induced activation of luciferase activity in HEK293 superTOPflash cells transfected with different Fzds is shown.
# as §7
# frizzled-2 (rFzd-2) = molecular target: T4, frizzled-2 (rFzd-2) (Rattus norvegicus, UniProt Q08464); test: Activity assay: Wnt3a-induced luciferase (superTOPflash) in HEK cells transfected with frizzled-2; type: cell-based; details: for Blocking of Wnt3a-induced luciferase activity, rFzd-2: peptide 1.10^−8 M
# T4 construct: expressed in transfected cells; host or cells: HEK293 superTOPflash (human embryonic kidney), transient, pcDNA3.1/hygro
# T4 sequence (Q08464 29-570): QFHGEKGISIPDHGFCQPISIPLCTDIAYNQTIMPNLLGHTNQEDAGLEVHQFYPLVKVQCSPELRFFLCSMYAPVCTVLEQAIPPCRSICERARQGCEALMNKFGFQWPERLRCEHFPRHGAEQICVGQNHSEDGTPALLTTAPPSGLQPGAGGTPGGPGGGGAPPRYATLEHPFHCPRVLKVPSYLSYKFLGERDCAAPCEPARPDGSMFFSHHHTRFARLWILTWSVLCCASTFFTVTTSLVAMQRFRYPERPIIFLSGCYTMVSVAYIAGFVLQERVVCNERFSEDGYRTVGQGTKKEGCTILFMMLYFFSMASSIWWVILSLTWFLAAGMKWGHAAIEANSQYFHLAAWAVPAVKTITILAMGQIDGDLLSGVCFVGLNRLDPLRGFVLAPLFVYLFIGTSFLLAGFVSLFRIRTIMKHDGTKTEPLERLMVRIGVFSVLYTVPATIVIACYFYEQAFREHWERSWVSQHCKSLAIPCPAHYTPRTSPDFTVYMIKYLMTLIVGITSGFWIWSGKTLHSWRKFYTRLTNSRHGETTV
# Protocol: as §1, §2, §3, §4, §5, §6, §7
# hFzd-4 = molecular target: T1, hFzd-4; test: Luciferase activity in HEK293 superTOPflash cells overexpressing hFzd-4; type: cell-based; details: FIG. 3, Panel F
# Protocol: as §8, §7
# Fzd-1 and -2 = test: UM206-Rhodamine binding to frozen sections of mouse kidney and gut and its blocking; details: 1.10^−8 M
# Protocol: Specificity of the binding site was confirmed by prior incubation of the tissue sections with UM207 (1.10^−8 M) or recombinant Wnt3a (1.10^−8 M).
# One-half of the hearts of the mice was embedded in paraffin and cut in 4 μm sections. The paraffin sections were rehydrated and washed in PBS. One section was stained with AZAN, allowing an accurate determination of the infarct size. To visualize the myofibroblasts in the infarct area, the sections were incubated with an antibody directed against a-smooth muscle actin (Sigma-Aldrich), followed by incubation with the peroxidase-conjugated secondary antibody (Vector laboratories). Nuclei were visualized by hematoxylin. Photos were taken with a Leica (CTR500, 63x/0.85) camera and analyzed with the Quantimet program (QWin/QGo). An examiner blinded to the groups of the animals obtained all measurements. For the experiments with Rhodamine-labeled UM206, frozen sections (4 μm) of mouse kidney and small intestine were used.
# [1] = test system: Wnt/Fzd signal transduction cascade; test: Luciferase activity in HEK293-superTOPflash cells (Wnt/Fzd signal transduction cascade); type: cell-based, human; details: for Luciferase activity induced by the peptide by itself: without Wnt3a
# From the text: as §1
# Three areas of high homology that contained two cysteines are underlined (UM207), (UM208) and (UM206). In FIGS. 9B through 9D, the inhibitory effect of these three peptides on Wnt3a-induced luciferase activity in HEK293-superTOPflash is shown. […] Again, the peptides by themselves had no effect on the luciferase activity.
# frizzled receptor = test: Activity on the frizzled receptor (activity assay of Example 1), result in words; type: cell-based
# Protocol: as §1, §2
# Analogues of UM206 were prepared by solid phase peptide synthesis. Each amino acid residue was sequentially replaced by an alanine residue and antagonistic activity of the analogue was tested as described in the activity assay of Example 1. […] Titles indicate which amino acid residue was substituted by an alanine residue.
# [2] = test system: C-FIT cells (cardiac fibroblasts immortalized with telomerase); test: Migration (wound/scratch) assay with C-FIT cells overexpressing Fzd-1 or -2; type: cell-based, rat
# Protocol: For this assay, we used rat cardiac fibroblasts, which were immortalized with telomerase, the C-FIT cell line. This cell line was characterized previously and resembles features of primary cardiac fibroblasts. C-FIT cells were plated, treated when they were 70% confluent and a wound was made with a pipette tip at the moment of 100% confluence.
# This assay was first tested with the natural ligand Wnt3a, in combination with frizzled-1 and -2 overexpression. […] Next step was to see whether the antagonist could counteract this. (See FIG. 4.)
# Day 1: • Plate cells in 12-well plates
# Day 2: • Transfection (see protocol)
# Day 3: • Addition of conditioned medium
# Day 4: • Make a scratch. This is time point zero.
# Making pictures every six hours and analyzing the scratch width.
# Cells were plated on day 0, and cultured until 70% confluence before transfection or treatment. Migration assays started 48 hours after transfection and/or treatment. The time point where the scratch was made, is indicated as 0 hours. Scratch width was measured at this time point, and also after 6, 12, and 24 hours.
molecule,measurement,setting,value
CSCC[C@@H]1NC(=O)CNC(=O)[C@H](CCC(=O)O)NC(=O)[C@H](CO)NC(=O)[C@H]([C@@H](C)O)NC(=O)[C@H](CCCCN)NC(=O)[C@H](CC(N)=O)NC(=O)[C@@H](NC(C)=O)CSSC[C@@H](C(=O)N[C@@H](CCC(=O)O)C(=O)N[C@@H](CC(C)C)C(N)=O)NC(=O)CNC(=O)[C@H](CC(=O)O)NC1=O [UM206(S-S)] (Ac-CNKTSEGMDGCEL-NH2; disulfide 1-11),"Agonist activity, frizzled-1","frizzled-1 (rFzd-1); FIG. 3, Panel F",specific agonist
same,"Agonist activity, frizzled-5",hFzd-5,not for frizzled-4 or frizzled-5
same,"Agonist activity, frizzled-2","frizzled-2 (rFzd-2); FIG. 3, Panel F",specific agonist
same,"Agonist activity, frizzled-4",hFzd-4,not for frizzled-4 or frizzled-5
UM206-rhodamine: UM206 with rhodamine attached to Lys^3 (Ac-CNK(rhodamine)TSEGMDGCEL-NH2; reading uncertain; also: printed as Ac-Cys-Asn-Lys-Thr-Ser-Glu-Gly-Met-Asp-Gly-Cys-Glu-Leu-NH2),Staining of frozen sections of mouse kidney and gut,"Fzd-1 and -2; 15 minutes, two-foton microscopy",staining of tubular epithelium and panneth cells
CC[C@H](C)[C@H](NC(=O)CNC(C)=O)C(=O)N[C@@H](CCCCN)C(=O)N[C@@H](CCC(=O)O)C(=O)N[C@@H](CS)C(=O)N[C@@H](CCC(N)=O)C(=O)N[C@@H](Cc1ccc(O)cc1)C(=O)N[C@@H](CCC(N)=O)C(=O)N[C@@H](Cc1ccccc1)C(=O)N[C@@H](CCCNC(=N)N)C(=O)N[C@@H](Cc1c[nH]cn1)C(=O)N[C@@H](CCCNC(=N)N)C(=O)N[C@@H](CCCNC(=N)N)C(=O)N[C@@H](Cc1c[nH]c2ccccc12)C(=O)N[C@@H](CC(N)=O)C(=O)N[C@@H](CS)C(=O)N[C@@H](CO)C(=O)N[C@H](C(=O)N[C@H](C(=O)N[C@@H](CC(=O)O)C(N)=O)C(C)C)[C@@H](C)O [UM207] (Ac-GIKECQYQFRHRRWNCSTVD-NH2),"Blocking of Wnt3a-induced luciferase activity, rFzd-1",frizzled-1 (rFzd-1),blocked almost completely
same,"Blocking of Wnt3a-induced luciferase activity, rFzd-2",frizzled-2 (rFzd-2),blocked almost completely
same,Blocking of UM206-rhodamine binding by prior incubation,Fzd-1 and -2,completely abolished the binding
same,Luciferase activity induced by the peptide by itself,[1],none of the three peptides by itself could induce an increase in luciferase activity
same,Activity on the frizzled receptor (in words),frizzled receptor,potent antagonist
Wnt3a,Increase of the luciferase activity by natural ligand in combination with frizzled-2,frizzled-2 (rFzd-2); concentration-dependent,twelve-fold
same,Effect of Wnt protein on migration of CFIT overexpressing rFzd-1 or -2,[2],attenuated the migration
same,Blocking of UM206-rhodamine binding by prior incubation,Fzd-1 and -2,completely abolished the binding
same,Increase of luciferase activity on addition of Wnt3a,"[1]; HEK293-superTOPflash, no Fzd transfection",~450 fold
UM207 S-S: UM207 forced to form a cyclic structure by inducing a S-S bond between the two cysteine residues (GIKECQYQFRHRRWNCSTVD-NH2; disulfide 5-16 (inferred); not fully specified (N-terminus)),Activity on the frizzled receptor (in words),frizzled receptor,potent agonist
"CC(=O)NCC(=O)N[C@@H](CO)C(=O)N[C@@H](CS)C(=O)N[C@@H](CO)C(=O)N[C@@H](CC(C)C)C(=O)N[C@@H](CCCCN)C(=O)N[C@H](C(=O)N[C@@H](CS)C(=O)N[C@@H](Cc1c[nH]c2ccccc12)C(=O)N[C@@H](CC(C)C)C(=O)N[C@@H](CCC(N)=O)C(=O)N[C@@H](CC(C)C)C(=O)N[C@@H](C)C(=O)N[C@@H](CC(=O)O)C(N)=O)[C@@H](C)O [UM208, GSCSLKTCWLQLAD] (Ac-GSCSLKTCWLQLAD-NH2)","Blocking of Wnt3a-induced luciferase activity, rFzd-1",frizzled-1 (rFzd-1),blocked almost completely
same,"Blocking of Wnt3a-induced luciferase activity, rFzd-2",frizzled-2 (rFzd-2),blocked almost completely
same,Luciferase activity induced by the peptide by itself,[1],none of the three peptides by itself could induce an increase in luciferase activity
CC[C@H](C)[C@H](NC(=O)CNC(=O)[C@H](Cc1c[nH]cn1)NC(=O)[C@H](CO)NC(=O)[C@H](CO)NC(=O)[C@@H](NC(=O)[C@H](CC(N)=O)NC(=O)[C@H](CS)NC(C)=O)C(C)C)C(=O)N[C@@H](CC(=O)O)C(=O)NCC(=O)N[C@@H](CS)C(=O)N[C@@H](CC(=O)O)C(=O)N[C@@H](CC(C)C)C(N)=O [CNVSSHGIDGCDL] (Ac-CNVSSHGIDGCDL-NH2; N-terminus assumed),% of inhibition for Fzd-1,frizzled-1 (rFzd-1); 1.0,45.32%
same,% of inhibition for Fzd-2,frizzled-2 (rFzd-2); 1.0,62.41%
same,Activity on the frizzled receptor (in words),frizzled receptor,"showed antagonistic properties too, albeit that the potency was lower than that of UM206"
"Wnt5a: natural ligand (Wnt protein) for frizzled-1 and frizzled-2 (protein, listed as Homo sapiens) FFLMALATFFSFAQVVIEANSWWSLGMNNPVQMSEVHIIGAQPLCSQLAGLSQGQKKLCHLYQDHMQYIGEGAKTGIKECQYQFRHRRWNCSTVDNTSVFGRVMQIGSRETAFTYAVSAAGVVNAMSRACREGELSTCGCSRAARPKDLPRDWLWGGCGDNIDYGYRFAKEFVDARERERIHAKGSYESARILMNLHNNEAGRRTVYNLADVACKCHGVSGSCSLKTCWLQLADFRKVGDALKEKYDSAAAMRLNSRGKLVQVNSRFNSPTTQDLVYIDPSPDYCVRNESTGSLGTQGRLCNKTSEGMDGCELMCCGRGYDQFKTVQTERCHCKFHWCCYVKCKKCTEIVDQFVCK",Effect of Wnt protein on migration of CFIT overexpressing rFzd-1 or -2,[2],attenuated the migration
